The subject of the assay is C. elegans.
Where [1] appears, read: Table S2, C. elegans SS assay, 110 μM, 0 h, averages of 4 data points.
[2] abbreviates: Table S2, C. elegans SS assay, 110 μM, 24 h, averages of 4 data points.

Where “and” joins values, the source holds several entries; their conditions need not be identical. Identical values can stand only once. Like-named read-outs stand apart in the source and are kept apart here.

Take `CC1(C)S[C@@H]2[C@H](NC(=O)C(C(=O)[O-])c3ccccc3)C(=O)N2[C@H]1C(=O)[O-].[Na+].[Na+]` (stereo partly shown) [Carbenicillin (disodium)]: the “Percentage of motility inhibition 0 h” value under setting [1] was 27%. The “Percentage of motility inhibition 24 h” value under setting [2] is recorded as 27%.
As for `O.O.O.O.O=C([O-])CC(O)(CC(=O)[O-])C(=O)[O-].[Li+].[Li+].[Li+]` [Lithium citrate (tetrahydrate)], under setting [1], the “Percentage of motility inhibition 0 h” value was determined as 13%. For the same compound, the “Percentage of motility inhibition 24 h” value under setting [2] is given as 0%.
In the same order, the values of `Cl.O[C@H]1[C@H]2c3cc4c(cc3CN3CCC(=C[C@@H]1O)[C@H]23)OCO4` [Lycorine (hydrochloride)] are 15% and 0%.
In the same order, the values of `CN1C[C@@H]2C[C@H](C1)c1cccc(=O)n1C2` [N‐Methylcytisine] are 0% and 0%.
For the compound `Cn1c(=O)c2c(c3ccccc31)OC(C)(C)C=C2` [N‐Methylflindersine], the “Percentage of motility inhibition 0 h” value under setting [1] is reported as 0%. The “Percentage of motility inhibition 24 h” value under setting [2] was determined as 1%.
The matching figures for `O=c1[nH]c2ccccc2c(-c2cccc(O)c2)c1O` [Viridicatol]: 0% and 0%.
The matching figures for `C[C@@H]1O[C@@H](O[C@H]2[C@H](O[C@H]3CC[C@@]4(C)[C@@H](CC[C@]5(C)[C@@H]4CC=C4[C@@H]6CC(C)(C)CC[C@]6(C(=O)O[C@@H]6O[C@H](CO[C@@H]7O[C@H](CO)[C@@H](O)[C@H](O)[C@H]7O)[C@@H](O)[C@H](O)[C@H]6O)CC[C@]45C)[C@]3(C)CO)OC[C@H](O)[C@@H]2O)[C@H](O)[C@H](O[C@@H]2O[C@H](CO)[C@@H](O)[C@H](O)[C@H]2O)[C@H]1O` [Macranthoidin A]: 1% and 1%.
In the same order, the values of `O=c1cccc2n1C[C@H]1C[C@@H]2CN2CCCC[C@@H]12` [Thermopsine] are 0% and 2%.
Turning to `O=c1c2cc(O[C@@H]3O[C@H](CO)[C@@H](O)[C@H](O)[C@H]3O)c(O)cc2oc2cc(O)c([C@@H]3O[C@H](CO)[C@@H](O)[C@H](O)[C@H]3O)c(O)c12` [Neomangiferin], the “Percentage of motility inhibition 0 h” value under setting [1] worked out at 7%. The “Percentage of motility inhibition 24 h” value under setting [2] is recorded as 17%.
In the same order, the values of Schaftoside are 0% and 3%.
The matching figures for `CC(=O)OC1CCC2(C)C(CCC3(C)C2CC=C2C4CC(C)(C)CCC4(C)CCC23C)C1(C)C(=O)O` (stereo not drawn) [3-O-Acetyl-α-boswellic acid]: 20% and 14%.
The matching figures for `Cl.N=C(N=C(N)N)N1CCOCC1` [Moroxydine (hydrochloride)]: 13% and 8%.
`CO[C@@]1(NC(=O)Cc2cccs2)C(=O)N2C(C(=O)[O-])=C(COC(N)=O)CS[C@@H]21.[Na+]` [Cefoxitin (sodium)]: the “Percentage of motility inhibition 0 h” value under setting [1] was 0%. Under setting [2], the “Percentage of motility inhibition 24 h” value stood at 0%.
For `C[C@H](CCC(=O)[O-])[C@H]1CC[C@H]2[C@@H]3CC[C@@H]4C[C@H](O)CC[C@]4(C)[C@H]3C[C@H](O)[C@]12C.[Na+]` [Deoxycholic acid sodium salt], the “Percentage of motility inhibition 0 h” value under setting [1] came to 0%. Further, the “Percentage of motility inhibition 24 h” value under setting [2] came to 26%.
In the same order, the values of `CC(C)=CCC[C@@](O)(CO[C@@H]1O[C@H](CO)[C@@H](O)[C@H](O)[C@H]1O)[C@H]1CC[C@]2(C)[C@@H]1CC[C@@H]1[C@@]3(C=O)CC[C@H](O[C@@H]4OC[C@H](O)[C@H](O[C@@H]5OC[C@@H](O)[C@H](O)[C@H]5O)[C@H]4O[C@@H]4O[C@@H](C)[C@H](O)[C@@H](O)[C@H]4O)C(C)(C)[C@@H]3CC[C@]12C` [Gypenoside XLIX] are 3% and 6%.
In the same order, the values of `Cc1c(C)c2c(c(C)c1O)CCC(C)(CCCC(C)CCCC(C)CCCC(C)C)O2` (racemic) [DL-alpha-Tocopherol] are 5% and 9%.
For the compound `C=C[C@H]1C[N@@]2CC[C@H]1C[C@H]2[C@H](O)c1ccnc2ccc(OC)cc12` [Quinine], the “Percentage of motility inhibition 24 h” value under setting [2] was 0% and 8% and 1%.
Consider `CNc1nc2nc[nH]c2c(=O)[nH]1` [N2‐Methylguanine], for which, for the setting “110 µM”, the “Percentage of motility inhibition 0 h” value is reported as 14% and the “Percentage of motility inhibition 24 h” value turned out to be 43%.
Regarding `C=C(C)[C@@H]1CC[C@]2(C(=O)O)CC[C@]3(C)[C@H](CC[C@@H]4[C@@]5(C)CC[C@H](O)[C@@](C)(CO)[C@@H]5CC[C@]43C)[C@@H]12` [23-Hydroxybetulinic acid], under setting [1], the “Percentage of motility inhibition 0 h” value stood at 13%. Besides, under setting [2], the “Percentage of motility inhibition 24 h” value was determined as 5%.
The matching figures for `COc1cccc(C[n+]2cn(Cc3ccccc3)c(C)c2C)c1.[Cl-]` [Lepidiline C]: 0% and 0%.
Turning to `O=c1cc(-c2ccc(O)cc2)oc2cc(O[C@@H]3O[C@H](CO)[C@@H](O)[C@H](O)[C@H]3O)cc(O)c12` [Apigenin 7‐glucoside], the “Percentage of motility inhibition 0 h” value under setting [1] amounted to 10%. Moreover, under setting [2], the “Percentage of motility inhibition 24 h” value is recorded as 40%.
The matching figures for `COc1cc2c(cc1OC)[C@@H]1Cc3ccc(OC)c(OC)c3C[N@@+]1([O-])CC2` [(‐)‐Corynoxidine]: 19% and 10%.
In the same order, the values of `C[C@H](CC[C@@H](O[C@@H]1O[C@H](CO[C@@H]2O[C@H](CO)[C@@H](O)[C@H](O)[C@H]2O)[C@@H](O)[C@H](O)[C@H]1O)C(C)(C)O)[C@H]1CC[C@@]2(C)[C@@H]3CC=C4[C@@H](CC[C@H](O[C@@H]5O[C@H](CO)[C@@H](O)[C@H](O)[C@H]5O)C4(C)C)[C@]3(C)[C@H](O)C[C@]12C` [Mogroside III] are 7% and 3%.
In the same order, the values of `CO[C@@H]1[C@@H](OC(N)=O)[C@@H](O)[C@H](Oc2ccc3c([O-])c(NC(=O)c4ccc(O)c(CC=C(C)C)c4)c(=O)oc3c2C)OC1(C)C.[Na+]` [Novobiocin (Sodium)] are 25% and 1%.
As to `Br.CN1[C@H]2C[C@H](OC(=O)[C@H](CO)c3ccccc3)C[C@@H]1[C@@H](O)C2` [Anisodamine (hydrobromide)], the “Percentage of motility inhibition 0 h” value under setting [1] was 0%. The “Percentage of motility inhibition 24 h” value under setting [2] turned out to be 1%.
The matching figures for `O=c1c2ccccc2nc2n1CC[C@@H]2O` [Vasicinone]: 0% and 0%.
Turning to `COc1cc2c(cc1O)CCN1Cc3c(ccc(OC)c3OC)CC21` (stereo not shown) [Corypalmine], under setting [1], the “Percentage of motility inhibition 0 h” value turned out to be 17%. In addition, the “Percentage of motility inhibition 24 h” value under setting [2] turned out to be 16%.
Consider `O=C(O)[C@H]1O[C@@H](Oc2c(-c3ccc(O)cc3)oc3cc(O)cc(O)c3c2=O)[C@H](O)[C@@H](O)[C@@H]1O` [Kaempferol 3‐O‐β‐D‐glucuronide], for which the “Percentage of motility inhibition 0 h” value under setting [1] came to 5%. Further, the “Percentage of motility inhibition 24 h” value under setting [2] is listed as 0%.
With `Cc1nc(C)c(C)nc1C.Cl` [Ligustrazine (hydrochloride)], the “Percentage of motility inhibition 0 h” value under setting [1] stood at 0%. Also, the “Percentage of motility inhibition 24 h” value under setting [2] is 17%.
With `O=c1ccoc2cc(O)ccc12` [7‐Hydroxy‐4H‐chromen‐4‐one], the “Percentage of motility inhibition 0 h” value under setting [1] is recorded as 0%. The “Percentage of motility inhibition 24 h” value under setting [2] turned out to be 8%.
In the case of `COC(=O)C1=CO[C@@H](C)[C@@H]2CN3CC[C@@]4(C(=O)Nc5ccccc54)[C@@H]3C[C@H]12` [Isopteropodine], the “Percentage of motility inhibition 0 h” value under setting [1] is on record as 9%. The “Percentage of motility inhibition 24 h” value under setting [2] is 0%.
As for `CC(C)OC(=O)OCOP(=O)(CO[C@H](C)Cn1cnc2c(N)ncnc21)OCOC(=O)OC(C)C` [Tenofovir (Disoproxil)], the “Percentage of motility inhibition 0 h” value under setting [1] turned out to be 23%. For the same compound, the “Percentage of motility inhibition 24 h” value under setting [2] was found to be 7%.
The matching figures for `O=C(N[C@@H](Cc1ccccc1)C(=O)N[C@H](CO)Cc1ccccc1)c1ccccc1` [Aurantiamide]: 0% and 15%.
In the same order, the values of `CC(C)(C)NC(=O)[C@@H]1CN(Cc2cccnc2)CCN1C[C@@H](O)C[C@@H](Cc1ccccc1)C(=O)N[C@H]1c2ccccc2C[C@H]1O.O=S(=O)(O)O` [Indinavir (sulfate)] are 8% and 10%.
The matching figures for `C=C(C)[C@H]1C=C[C@@](C)(O)CC1` [cis-Isolimonenol]: 2% and 30%.
For `C[S+]([O-])CCCC/C(=N\OS(=O)(=O)O)S[C@@H]1O[C@H](CO)[C@@H](O)[C@H](O)[C@H]1O` (stereo partly shown) [Glucoraphanin], the “Percentage of motility inhibition 0 h” value under setting [1] was found to be 12%. Also, the “Percentage of motility inhibition 24 h” value under setting [2] is listed as 0%.
Consider `CC(=O)C1CCC2C3CC=C4CC(OS(=O)(=O)O)CCC4(C)C3CCC12C` (stereo not shown) [Pregnenolone monosulfate], for which the “Percentage of motility inhibition 0 h” value under setting [1] is 0%. Moreover, the “Percentage of motility inhibition 24 h” value under setting [2] was determined as 4%.
In the same order, the values of `COc1cc2c(cc1OC)-c1cc3ccc4c(c3c[n+]1CC2)OCO4.[Cl-]` [Epiberberine (chloride)] are 22% and 8%.
As to `CO/N=C(\C(=O)N[C@@H]1C(=O)N2C(C(=O)[O-])=C(CSc3nc(=O)c([O-])nn3C)CS[C@H]12)c1csc(N)n1.CO/N=C(\C(=O)N[C@@H]1C(=O)N2C(C(=O)[O-])=C(CSc3nc(=O)c([O-])nn3C)CS[C@H]12)c1csc(N)n1.O.O.O.O.O.O.O.[Na+].[Na+].[Na+].[Na+]` [Ceftriaxone (sodium salt)], where the note is “110 µM”, the “Percentage of motility inhibition 0 h” value came to 25% and the “Percentage of motility inhibition 24 h” value worked out at 16%.
Take `COCc1c(CO)cnc(C)c1O` [4'‐O‐Methylpyridoxine]: the “Percentage of motility inhibition 0 h” value under setting [1] is listed as 26%. Also, the “Percentage of motility inhibition 24 h” value under setting [2] was 1%.

For the origin of these results see paper PMC11855827, “High-Throughput Screening of Five Compound Libraries for Anthelmintic Activity and Toxicity Leads to the Discovery of Two Flavonoid Compounds” (International Journal of Molecular Sciences, 2025).
